From patent US20130066055A1, “NEW BINDER-DRUG CONJUGATES (ADCS) AND USE THEREOF” (Bayer Intellectual Property GmbH, priority 2011, published 2013)
Where “and” joins values, the source holds several entries; their conditions need not be identical. Equal values may be shown once. Where a name gives a salt, the structure may show the parent alone. Square brackets hold non-standard residues; d marks the D form. Peptide text beside a SMILES is read from it. * marks the point of attachment. X2 = CC(C)[C@@H](C(=O)*)N(C)CCCCCCN1C(=O)CC(SC[C@H](N)C(=O)O)C1=O; X3 = CC(C)[C@@H](C(=O)*)N(C)CCOCCOCCOCCC(=O)NCCCC[C@H](N)C(=O)O; X4 = C[C@@H](O)[C@@H](C(=O)*)N(C)CCCCCC(=O)NCCCC[C@H](N)C(=O)O; X1 = CC(C)[C@@H](C(=O)*)N(C)CCCCCC(=O)NCCCC[C@H](N)C(=O)O; Dolaproine = CO[C@@H]([C@@H]1CCCN1)[C@@H](C)C(=O)O; Dil = CC[C@H](C)[C@H](NC)[C@@H](CC(=O)O)OC; Oxazinan2yl(1,2) = C1CCN(*)OC1

Legend:
[1] = test system: tubulin; assay: Fluorescence-based microtubule (tubulin) polymerization assay; assay type: biochemical
Experimental: Tubulin polymerization was investigated using the “Fluorescence-based Microtubule Polymerisation Assay Kit” from Cytoskeleton (Denver, Colo., USA; order number: BK011). With this assay, GTP is added to unpolymerized tubulin, allowing polymerization to take place spontaneously. The assay is based on the binding of the fluorophore 4′,6-di-amidino-2-phenylindole (DAPI) to tubulin. Free and bound DAPI can be differentiated on the basis of different emission spectra.
[…] In addition to the buffer control, paclitaxel, with a polymerization-increasing effect, and vinblastin, with a polymerization inhibiting effect, were run additionally as assay controls. Measurement was carried out using 96-well plates with a half base area. The kinetics of the tubulin polymerization were monitored in a Fluorimeter at 37° C. for 1 hour. The excitation wavelength was 355 nm, and emission was monitored at 460 nm. For the region of linear increase within the first 10 minutes, a calculation was made of the change in fluorescence per minute (ΔF/min), which represents the polymerization rate of the microtubuli. The potency of the test substances was quantified on the basis of their respective reduction of the polymerization rate.

[2] = Caco-2 flux assay for cell permeability; assay type: in vitro ADME; conditions: human, Caco-2 cells, basal to apical
Experimental: The cell permeability of a substance can be investigated by means of in vitro testing in a flux assay using Caco-2 cells [M. D. Troutman and D. R. Thakker, Pharm. Res. 20 (8), 1210-1224 (2003)]. For this purpose, the cells were cultured for 15-16 days on 24-well filter plates. For the determination of permeation, the respective working example was applied in a HEPES buffer to the cells either apically (A) or basally (B) and incubated for 2 hours. After 0 hours and after 2 hours, samples were taken from the cis and trans compartments. The samples were separated by HPLC (Agilent 1200, Böblingen, Germany) using reverse phase columns. The HPLC system was coupled via a Turbo Ion Spray Interface to a Triple Quadropol mass spectrometer API 4000 (Applied Biosystems Applera, Darmstadt, Germany). The permeability was evaluated on the basis of a Papp value, which was calculated using the formula published by Schwab et al. [D. Schwab et al., J. Med. Chem. 46, 1716-1725 (2003)].

[3] = molecular target: T1, P-glycoprotein (P-gp, ABCB1) (Homo sapiens, UniProt P08183); assay: Flux assay in P-gp overexpressing L-MDR1 cells; assay type: in vitro ADME; conditions: LLC-PK1, basal to apical
T1 construct: expressed in transfected cells; host or cells: LLC-PK1 (pig kidney) cells transfected with human MDR1 (L-MDR1 cells)
Experimental: The substrate properties of a substance for P-gp (ABCB1) were determined by means of a flux assay using LLC-PK1 cells which overexpress P-gp (L-MDR1 cells) [A. H. Schinkel et al., J. Clin. Invest. 96, 1698-1705 (1995)]. For this purpose, the LLC-PK1 cells or L-MDR1 cells were cultured on 96-well filter plates for 3-4 days. For determination of the permeation, the respective test substance, alone or in the presence of an inhibitor (such as Ivermectin or Verapamil, for example), was applied in a HEPES buffer to the cells either apically (A) or basally (B) and incubated for 2 hours. After 0 hours and after 2 hours, samples were taken from the cis and trans compartments. The samples were separated by HPLC using reverse phase columns. The HPLC system was coupled via a Turbo Ion Spray Interface to a Triple Quadropol mass spectrometer API 3000 (Applied Biosystems Applera, Darmstadt, Germany). The permeability was evaluated on the basis of a Papp value which was calculated using the formula published by Schwab et al. [D. Schwab et al., J. Med. Chem. 46, 1716-1725 (2003)].

T1 sequence (P08183 whole entry): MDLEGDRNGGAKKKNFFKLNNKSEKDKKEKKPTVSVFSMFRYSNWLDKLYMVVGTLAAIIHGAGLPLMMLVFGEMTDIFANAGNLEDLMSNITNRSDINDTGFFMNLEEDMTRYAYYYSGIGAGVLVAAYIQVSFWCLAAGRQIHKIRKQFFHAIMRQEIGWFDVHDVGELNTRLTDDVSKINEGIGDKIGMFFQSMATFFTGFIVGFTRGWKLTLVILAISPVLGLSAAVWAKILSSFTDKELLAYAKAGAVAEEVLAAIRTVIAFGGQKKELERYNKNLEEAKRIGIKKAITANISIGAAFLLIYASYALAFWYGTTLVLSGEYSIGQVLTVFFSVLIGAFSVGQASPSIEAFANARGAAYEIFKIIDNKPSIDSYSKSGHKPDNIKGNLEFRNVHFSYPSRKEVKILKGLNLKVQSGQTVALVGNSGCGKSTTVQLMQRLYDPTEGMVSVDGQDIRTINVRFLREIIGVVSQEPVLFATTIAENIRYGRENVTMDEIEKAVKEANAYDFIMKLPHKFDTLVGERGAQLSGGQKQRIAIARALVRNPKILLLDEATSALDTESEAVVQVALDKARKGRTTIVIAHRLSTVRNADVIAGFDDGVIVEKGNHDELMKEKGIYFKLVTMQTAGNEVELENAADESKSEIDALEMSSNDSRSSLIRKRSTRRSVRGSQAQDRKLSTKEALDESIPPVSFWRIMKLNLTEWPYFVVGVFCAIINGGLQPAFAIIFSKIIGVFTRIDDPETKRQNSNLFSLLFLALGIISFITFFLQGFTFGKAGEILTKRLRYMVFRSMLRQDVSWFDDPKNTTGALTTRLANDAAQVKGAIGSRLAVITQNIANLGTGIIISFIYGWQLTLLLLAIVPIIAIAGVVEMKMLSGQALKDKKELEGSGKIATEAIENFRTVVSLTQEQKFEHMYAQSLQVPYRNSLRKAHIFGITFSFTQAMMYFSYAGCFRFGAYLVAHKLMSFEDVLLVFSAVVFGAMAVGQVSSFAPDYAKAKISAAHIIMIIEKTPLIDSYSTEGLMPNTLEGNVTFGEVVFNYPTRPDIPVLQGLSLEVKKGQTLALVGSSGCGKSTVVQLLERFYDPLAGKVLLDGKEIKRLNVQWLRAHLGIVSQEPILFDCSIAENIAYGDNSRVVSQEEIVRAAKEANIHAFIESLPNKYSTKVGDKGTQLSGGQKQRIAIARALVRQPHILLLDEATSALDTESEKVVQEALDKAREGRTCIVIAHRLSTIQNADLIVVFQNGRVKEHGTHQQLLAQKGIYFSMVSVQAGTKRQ

| Structure (SMILES) | Tubulin polymerization in the presence of toxophore in [%]. Tubulin polymerization rate at 1 μM MMAF set at 100% ([1]; toxophore 1 μM) | Tubulin polymerization in the presence of toxophore in [%]. Tubulin polymerization rate at 1 μM MMAF set at 100% ([1]; toxophore 10 μM) | Papp B→A at 2 h [2] | Papp B→A at 2 h [3] |
| --- | --- | --- | --- | --- |
| CC[C@H](C)[C@@H]([C@@H](CC(=O)N1CCC[C@H]1[C@H](OC)[C@@H](C)C(=O)N[C@@H](Cc1c[nH]c2ccccc12)C(=O)NCc1ccccc1)OC)N(C)C(=O)[C@@H](NC(=O)[C@H](C(C)C)N(C)CCCC(=O)NNC(=O)CCCCCN1C(=O)CC(SC[C@H](N)C(=O)O)C1=O)C(C)C (stereo partly drawn) [Example 77, N-(4-{2-[6-(3-{[(2R)-2-Amino-2-carboxyethyl]sulphanyl}-2,5-dioxopyrrolidin-1-yl)hexanoyl]hydrazino}-4-oxobutyl)-N-methyl-L-valyl-N-[(3R,4S,5S)-1-{(2S)-2-[(1R,2R)-3-{[(2S)-1-(benzylamino)-3-(1H-indol-3-yl)-1-oxopropan-2-yl]amino}-1-methoxy-2-methyl-3-oxopropyl]pyrrolidin-1-yl}-3-methoxy-5-methyl-1-oxoheptan-4-yl]-N-methyl-L-valinamide] | 111% | 45% | 0.7 ×10⁻⁶ cm/s | 0.2 ×10⁻⁶ cm/s |
| CC[C@H](C)[C@@H]([C@@H](CC(=O)N1CCC[C@H]1[C@H](OC)[C@@H](C)C(=O)N[C@@H](Cc1ccc(O)cc1)C(=O)N1CCCCO1)OC)N(C)C(=O)[C@@H](NC(=O)[C@H](C(C)C)N(C)CCCCCC(=O)NCCCC[C@H](N)C(=O)O)C(C)C [Example 127, N-(6-{[(5S)-5-Amino-5-carboxypentyl]amino}-6-oxohexyl)-N-methyl-L-valyl-N-[(3R,4S,5S)-1-{(2S)-2-[(1R,2R)-3-{[(2S)-3-(4-hydroxyphenyl)-1-(1,2-oxazinan-2-yl)-1-oxopropan-2-yl]amino}-1-methoxy-2-methyl-3-oxopropyl]pyrrolidin-1-yl}-3-methoxy-5-methyl-1-oxoheptan-4-yl]-N-methyl-L-valinamide trifluoroacetate] (X1-V[Dil][Dolaproine]Y-{Oxazinan2yl(1,2)}) | – | – | 0.15 ×10⁻⁶ cm/s | – |
| CC[C@H](C)[C@@H]([C@@H](CC(=O)N1CCC[C@H]1[C@H](OC)[C@@H](C)C(=O)N[C@@H](Cc1c[nH]c2ccccc12)C(=O)O)OC)N(C)C(=O)[C@@H](NC(=O)[C@H](C(C)C)N(C)CCCCCC(=O)NCCCC[C@H](N)C(=O)O)C(C)C [Example 116, N-(6-{[(5S)-5-Amino-5-carboxypentyl]amino}-6-oxohexyl)-N-methyl-L-valyl-N-[(3R,4S,5S)-1-{(2S)-2-[(1R,2R)-3-{[(1S)-1-carboxy-2-(1H-indol-3-yl)ethyl]amino}-1-methoxy-2-methyl-3-oxopropyl]pyrrolidin-1-yl}-3-methoxy-5-methyl-1-oxoheptan-4-yl]-N-methyl-L-valinamide] (X1-V[Dil][Dolaproine]W-OH) | 80% | 14% | 0.1 ×10⁻⁶ cm/s | 0.4 ×10⁻⁶ cm/s |
| CC[C@H](C)[C@@H]([C@@H](CC(=O)N1CCC[C@H]1[C@H](OC)[C@@H](C)C(=O)N[C@@]1(C(=O)N2CCCCO2)C[C@@H]1c1ccccc1)OC)N(C)C(=O)[C@@H](NC(=O)[C@H](C(C)C)N(C)CCCC(=O)NNC(=O)CCCCCN1C(=O)CC(SC[C@H](N)C(=O)O)C1=O)C(C)C (stereo partly drawn) [Example 73, N-(4-{2-[6-(3-{[(2R)-2-Amino-2-carboxyethyl]sulphanyl}-2,5-dioxopyrrolidin-1-yl)hexanoyl]hydrazino}-4-oxobutyl)-N-methyl-L-valyl-N-[(3R,4S,5S)-3-methoxy-1-{(2S)-2-[(1R,2R)-1-methoxy-2-methyl-3-{[(1S,2R)-1-(1,2-oxazinan-2-ylcarbonyl)-2-phenylcyclopropyl]amino}-3-oxopropyl]pyrrolidin-1-yl}-5-methyl-1-oxoheptan-4-yl]-N-methyl-L-valinamide] | 120% | – | 0.25 ×10⁻⁶ cm/s | 0.21 ×10⁻⁶ cm/s |
| CC[C@H](C)[C@@H]([C@@H](CC(=O)N1CCC[C@H]1[C@H](OC)[C@@H](C)C(=O)N[C@@H](Cc1c[nH]c2ccccc12)C(=O)N1CCCCO1)OC)N(C)C(=O)[C@@H](NC(=O)[C@H](C(C)C)N(C)CCOCCOCCOCCC(=O)NCCCC[C@H](N)C(=O)O)C(C)C [Example 117, N-[(18S)-[8-Amino-18-carboxy-12-oxo-3,6,9-trioxa-13-azaoctadec-1-yl]-N-methyl-L-valyl-N-[(3R,4S,5S)-1-{(2S)-2-[(1R,2R)-3-{[(2S)-3-(1H-indol-3-yl)-1-(1,2-oxazinan-2-yl)-1-oxopropan-2-yl]amino}-1-methoxy-2-methyl-3-oxopropyl]pyrrolidin-1-yl}-3-methoxy-5-methyl-1-oxoheptan-4-yl]-N-methyl-L-valinamide trifluoroacetate] (X3-V[Dil][Dolaproine]W-{Oxazinan2yl(1,2)}) | 60% and 78% | – | – | – |
| CC[C@H](C)[C@@H]([C@@H](CC(=O)N1CCC[C@H]1[C@H](OC)[C@@H](C)C(=O)N[C@@H](Cc1ccccc1)C(=O)NCc1ccccc1)OC)N(C)C(=O)[C@@H](NC(=O)[C@H](C(C)C)N(C)CCCC(=O)NNC(=O)CCCCCN1C(=O)CC(SC[C@H](N)C(=O)O)C1=O)C(C)C (stereo partly drawn) [Example 78, N-(4-{2-[6-(3-{[(2R)-2-Amino-2-carboxyethyl]sulphanyl}-2,5-dioxopyrrolidin-1-yl)hexanoyl]hydrazino}-4-oxobutyl)-N-methyl-L-valyl-N-[(3R,4S,5S)-1-{(2S)-2-[(1R,2R)-3-{[(2S)-1-(benzylamino)-1-oxo-3-phenylpropan-2-yl]amino}-1-methoxy-2-methyl-3-oxopropyl]pyrrolidin-1-yl}-3-methoxy-5-methyl-1-oxoheptan-4-yl]-N-methyl-L-valinamide] | 110% | – | – | – |
| CC[C@H](C)[C@@H]([C@@H](CC(=O)N1CCC[C@H]1[C@H](OC)[C@@H](C)C(=O)N[C@@H](Cc1c[nH]c2ccccc12)C(=O)N1CCCCO1)OC)N(C)C(=O)[C@@H](NC(=O)[C@H](C(C)C)N(C)CCCCCCN1C(=O)CC(SC[C@H](N)C(=O)O)C1=O)C(C)C (stereo partly drawn) [Example 76, N-[6-(3-{[(2R)-2-Amino-2-carboxyethyl]sulphanyl}-2,5-dioxopyrrolidin-1-yl)hexyl]-N-methyl-L-valyl-N-[(3R,4S,5S)-1-{(2S)-2-[(1R,2R)-3-{[(2S)-3-(1H-indol-3-yl)-1-(1,2-oxazinan-2-yl)-1-oxopropan-2-yl]amino}-1-methoxy-2-methyl-3-oxopropyl]pyrrolidin-1-yl}-3-methoxy-5-methyl-1-oxoheptan-4-yl]-N-methyl-L-valinamide] (X2-V[Dil][Dolaproine]W-{Oxazinan2yl(1,2)}) | 121% | 35% | – | – |
| CC[C@H](C)[C@@H]([C@@H](CC(=O)N1CCC[C@H]1[C@H](OC)[C@@H](C)C(=O)N[C@@H](Cc1c[nH]c2ccccc12)C(=O)N1CCCCO1)OC)N(C)C(=O)[C@@H](NC(=O)[C@H]([C@@H](C)O)N(C)CCCCCC(=O)NCCCC[C@H](N)C(=O)O)C(C)C [Example 126, N-(6-{[(5S)-5-Amino-5-carboxypentyl]amino}-6-oxohexyl)-N-methyl-L-threonyl-N-[(3R,4S,5S)-1-{(2S)-2-[(1R,2R)-3-{[(2S)-3-(1H-indol-3-yl)-1-(1,2-oxazinan-2-yl)-1-oxopropan-2-yl]amino}-1-methoxy-2-methyl-3-oxopropyl]pyrrolidin-1-yl}-3-methoxy-5-methyl-1-oxoheptan-4-yl]-N-methyl-L-valinamide trifluoroacetate] (X4-V[Dil][Dolaproine]W-{Oxazinan2yl(1,2)}) | – | – | 0.18 ×10⁻⁶ cm/s | – |
